Values joined by “and” are separate entries in the source; they are usually repeats but may differ in a detail not shown here. Equal entries are not always repeated. Inconclusive results are not listed.
Test system: BDF1 mice, colon carcinoma 38 sc, T/C %
Test: NCI In Vivo Anticancer Drug Screen. Data for tumor model Colon Carcinoma 38 (subcutaneous) in B6D2F1 (BDF1) mice
Settings: endpoint: median tumor weight (est.), higher = larger tumour
How it was run: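 T/C readout: treated group (T) measurement over vehicle control group (C) measurement. Endpoint is survival or tumor size in mice bearing a transplanted tumor.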

[1] = dose: 25.0 mg/kg/injection, schedule: Q07DX002 (ip), vehicle: saline with Tween-80
[2] = dose: 50.0 mg/kg/injection, schedule: Q07DX002 (ip), vehicle: saline with Tween-80
[3] = dose: 200.0 mg/kg/injection, schedule: Q07DX002 (ip), vehicle: saline with Tween-80
[4] = dose: 100.0 mg/kg/injection, schedule: Q07DX002 (ip), vehicle: saline with Tween-80
[5] = dose: 25.0 mg/kg/injection, schedule: Q07DX002 (ip), vehicle: Klucel (hydroxypropylcellulose) (HPC)
[6] = dose: 50.0 mg/kg/injection, schedule: Q07DX002 (ip), vehicle: Klucel (hydroxypropylcellulose) (HPC)
[7] = dose: 100.0 mg/kg/injection, schedule: Q07DX002 (ip), vehicle: Klucel (hydroxypropylcellulose) (HPC)
[8] = dose: 200.0 mg/kg/injection, schedule: Q07DX002 (ip), vehicle: Klucel (hydroxypropylcellulose) (HPC)
[9] = dose: 6.25 mg/kg/injection, schedule: Q07DX002 (ip), vehicle: saline
[10] = dose: 12.5 mg/kg/injection, schedule: Q07DX002 (ip), vehicle: saline
[11] = dose: 25.0 mg/kg/injection, schedule: Q07DX002 (ip), vehicle: saline
[12] = dose: 50.0 mg/kg/injection, schedule: Q07DX002 (ip), vehicle: saline
[13] = dose: 100.0 mg/kg/injection, schedule: Q07DX002 (ip), vehicle: saline
[14] = dose: 200.0 mg/kg/injection, schedule: Q07DX002 (ip), vehicle: saline
[15] = dose: 400.0 mg/kg/injection, schedule: Q07DX002 (ip), vehicle: saline
[16] = dose: 800.0 mg/kg/injection, schedule: Q07DX002 (ip), vehicle: saline

Q: With `CC12CC(C(=O)O)C3(O)CC(C)(C1)CC(C)(C2)C3` (stereo not given) (tested in a mixture with another compound) as the molecule, how does the T/C (dose: 12.5 mg/kg/injection, schedule: Q07DX003 (ip), vehicle: Klucel (hydroxypropylcellulose) (HPC)) read?
A: 70 % of control

Q: And the T/C (dose: 25.0 mg/kg/injection, schedule: Q07DX003 (ip), vehicle: Klucel (hydroxypropylcellulose) (HPC))?
A: 94 % of control

Q: What about the T/C (dose: 50.0 mg/kg/injection, schedule: Q07DX003 (ip), vehicle: Klucel (hydroxypropylcellulose) (HPC)) of the same molecule?
A: 93 % of control

Q: And the T/C (dose: 100.0 mg/kg/injection, schedule: Q07DX003 (ip), vehicle: Klucel (hydroxypropylcellulose) (HPC))?
A: 121 % of control

Q: And the T/C (dose: 200.0 mg/kg/injection, schedule: Q07DX003 (ip), vehicle: Klucel (hydroxypropylcellulose) (HPC))?
A: 84 % of control

Q: `COc1ccc(S(=O)(=O)N/N=C/C(=O)O)cc1` was tested. Which T/C (dose: 6.25 mg/kg/injection, schedule: Q07DX002 (ip), vehicle: saline with Tween-80) did it give?
A: 82 % of control

Q: What about the T/C [1] of the same molecule?
A: 96 % of control and 104 % of control

Q: And the T/C [2]?
A: 117 % of control and 100 % of control

Q: And the T/C [3]?
A: 87 % of control and 95 % of control

Q: With `COc1ccc(-c2cc(=O)c3cccc(CC(=O)O)c3o2)cc1` as the molecule, how does the T/C [4] read?
A: 84 % of control

Q: And the T/C [3]?
A: 113 % of control

Q: Which T/C (dose: 0.12 mg/kg/injection, schedule: Q07DX002 (ip), vehicle: saline) does the source give for `O=C1C(NCCO)=C(N2CC2)C(=O)C(NCCO)=C1N1CC1` here?
A: 83 % of control and 91 % of control

Q: And the T/C (dose: 0.25 mg/kg/injection, schedule: Q07DX002 (ip), vehicle: saline)?
A: 92 % of control

Q: `CCC1CCCCN1C(=S)N/N=C(\C)c1ccccn1` (stereo not given) was tested. Which T/C [1] did it give?
A: 121 % of control

Q: `O=C(O)CSc1nc(-c2ccccc2)c(-c2ccccc2)n1-c1ccccn1` was tested. Which T/C (dose: 12.5 mg/kg/injection, schedule: Q07DX002 (ip), vehicle: Klucel (hydroxypropylcellulose) (HPC)) did it give?
A: 92 % of control

Q: What about the T/C [5] of the same molecule?
A: 83 % of control

Q: And the T/C (dose: 25.0 mg/kg/injection, schedule: Q07DX002 (ip), vehicle: water)?
A: 114 % of control

Q: And the T/C [6]?
A: 72 % of control

Q: What about the T/C (dose: 50.0 mg/kg/injection, schedule: Q07DX002 (ip), vehicle: water) of the same molecule?
A: 112 % of control

Q: What about the T/C [7] of the same molecule?
A: 106 % of control

Q: What about the T/C (dose: 100.0 mg/kg/injection, schedule: Q07DX002 (ip), vehicle: water) of the same molecule?
A: 95 % of control

Q: And the T/C [8]?
A: 73 % of control

Q: What about the T/C (dose: 200.0 mg/kg/injection, schedule: Q07DX002 (ip), vehicle: water) of the same molecule?
A: 89 % of control

Q: With `CCC(C)(OC(C)=O)C(=O)OC1C(=O)OC2CC3C(C)=CC(O)C(O)C3(C)C3C4(O)OCC23C1C(C)C4O` (stereo not given) as the molecule, how does the T/C (dose: 0.12 mg/kg/injection, schedule: Q07DX002 (ip), vehicle: saline + alcohol) read?
A: 80 % of control

Q: And the T/C (dose: 0.25 mg/kg/injection, schedule: Q07DX002 (ip), vehicle: saline + alcohol)?
A: 48 % of control

Q: And the T/C (dose: 0.5 mg/kg/injection, schedule: Q07DX002 (ip), vehicle: saline + alcohol)?
A: 79 % of control

Q: What about the T/C (dose: 1.0 mg/kg/injection, schedule: Q07DX002 (ip), vehicle: saline + alcohol) of the same molecule?
A: 43 % of control

Q: And the T/C (dose: 2.0 mg/kg/injection, schedule: Q07DX002 (ip), vehicle: saline + alcohol)?
A: 75 % of control

Q: And the T/C (dose: 4.0 mg/kg/injection, schedule: Q07DX002 (ip), vehicle: saline + alcohol)?
A: 105 % of control

Q: Which results are given for `CC[C@@]1(O)C[C@H](OC2CC(N(C)C)C(OC3CC(O)C(OC4CC(O)C(O)C(C)O4)C(C)O3)C(C)O2)c2c(cc3c(c2O)C(=O)c2c(O)ccc(O)c2C3=O)[C@H]1C(=O)OC` (stereo not given in full)?
A: T/C (dose: 1.5 mg/kg/injection, schedule: Q07DX003 (ip), vehicle: Klucel (hydroxypropylcellulose) (HPC)): 95 % of control; T/C (dose: 3.0 mg/kg/injection, schedule: Q07DX003 (ip), vehicle: Klucel (hydroxypropylcellulose) (HPC)): 72 % of control

Q: How did the T/C [9] turn out when `C=C1C(=O)OC2CC(C)C3C4OC4C(O)C3(C)C(O)C12` (stereo not given) was run?
A: 115 % of control

Q: And the T/C [10]?
A: 118 % of control

Q: What about the T/C [11] of the same molecule?
A: 116 % of control

Q: What about the T/C [12] of the same molecule?
A: 80 % of control

Q: What about the T/C [13] of the same molecule?
A: 155 % of control

Q: How did the T/C (dose: 0.75 mg/kg/injection, schedule: Q07DX002 (ip), vehicle: saline with Tween-80) turn out when `CC(=O)OC1COC(NC(=O)N(CCCl)N=O)C(OC(C)=O)C1OC(C)=O` (stereo not given) was run?
A: 92 % of control

Q: What about the T/C (dose: 1.5 mg/kg/injection, schedule: Q07DX002 (ip), vehicle: saline with Tween-80) of the same molecule?
A: 84 % of control

Q: What about the T/C (dose: 3.0 mg/kg/injection, schedule: Q07DX002 (ip), vehicle: saline with Tween-80) of the same molecule?
A: 66 % of control

Q: And the T/C (dose: 6.0 mg/kg/injection, schedule: Q07DX002 (ip), vehicle: saline with Tween-80)?
A: 92 % of control

Q: What about the T/C (dose: 12.0 mg/kg/injection, schedule: Q07DX002 (ip), vehicle: saline with Tween-80) of the same molecule?
A: 44 % of control

Q: `N#CCCN(C(=S)Nc1cccc(C(F)(F)F)c1)C1CCCCC1` was tested. Which T/C [6] did it give?
A: 67 % of control and 71 % of control

Q: What about the T/C [8] of the same molecule?
A: 76 % of control and 80 % of control and 88 % of control

Q: And the T/C (dose: 800.0 mg/kg/injection, schedule: Q07DX002 (ip), vehicle: Klucel (hydroxypropylcellulose) (HPC))?
A: 79 % of control and 92 % of control

Q: With `C=C1C(=O)OCC1(C(=O)OCC)C(=O)OCC` as the molecule, how does the T/C (dose: 12.5 mg/kg/injection, schedule: Q07DX002 (ip), vehicle: saline with Tween-80) read?
A: 42 % of control and 62 % of control and 66 % of control

Q: And the T/C [2]?
A: 88 % of control

Q: For `CC(C)NC(=O)N(CCCCBr)N=O`, which T/C [5] is on record?
A: 90 % of control

Q: And the T/C [6]?
A: 86 % of control

Q: What about the T/C [7] of the same molecule?
A: 70 % of control

Q: What about the T/C [8] of the same molecule?
A: 56 % of control

Q: How did the T/C [5] turn out when `N/C(=N\OC(=O)Nc1ccc(CSc2ccc(Cl)cc2)o1)c1ccccn1` was run?
A: 89 % of control

Q: What about the T/C [6] of the same molecule?
A: 75 % of control

Q: What about the T/C [7] of the same molecule?
A: 90 % of control

Q: Which results are given for `COC(C(=O)C(O)C(C)O)C1CC2C=C3C=C(OC4CC(OC5CC(O)C(OC)C(C)O5)C(OC(C)=O)C(C)O4)C(C)C(=O)C3=C(O)C2=C(O)C1OC1CC(OC2CC(OC3CC(C)(O)C(O)C(C)O3)C(O)C(C)O2)C(O)C(C)O1` (stereo not given)?
A: T/C (dose: 1.0 mg/kg/injection, schedule: Q07DX002 (ip), vehicle: saline with Tween-80): 121 % of control; T/C (dose: 2.0 mg/kg/injection, schedule: Q07DX002 (ip), vehicle: saline with Tween-80): 150 % of control; T/C (dose: 4.0 mg/kg/injection, schedule: Q07DX002 (ip), vehicle: saline with Tween-80): 112 % of control; T/C (dose: 8.0 mg/kg/injection, schedule: Q07DX002 (ip), vehicle: saline with Tween-80): 114 % of control; T/C (dose: 16.0 mg/kg/injection, schedule: Q07DX002 (ip), vehicle: saline with Tween-80): 111 % of control

Q: With `CC(=O)NC(Cc1ccc(F)cc1)C(=O)O` (stereo not given) as the molecule, how does the T/C [4] read?
A: 84 % of control

Q: And the T/C [3]?
A: 83 % of control

Q: And the T/C (dose: 400.0 mg/kg/injection, schedule: Q07DX002 (ip), vehicle: saline with Tween-80)?
A: 77 % of control

Q: And the T/C (dose: 800.0 mg/kg/injection, schedule: Q07DX002 (ip), vehicle: saline with Tween-80)?
A: 77 % of control

Q: Which T/C [9] does the source give for `CC1CN1P1(N2CC2C)=NP(N2CC2C)(N2CC2C)=NP(N2CC2C)(N2CC2C)=N1` (stereo not given) here?
A: 103 % of control

Q: And the T/C [10]?
A: 104 % of control

Q: And the T/C [11]?
A: 111 % of control

Q: And the T/C [12]?
A: 155 % of control

Q: What about the T/C [13] of the same molecule?
A: 70 % of control and 94 % of control

Q: `CN(C)C=O` was tested. Which T/C [11] did it give?
A: 45 % of control

Q: What about the T/C [12] of the same molecule?
A: 83 % of control

Q: What about the T/C [14] of the same molecule?
A: 89 % of control

Q: What about the T/C [15] of the same molecule?
A: 89 % of control and 92 % of control

Q: What about the T/C [16] of the same molecule?
A: 115 % of control

Q: Which results are given for `CC(=O)Nc1ccc(/C=N/NC(N)=S)cc1`?
A: T/C [7]: 117 % of control and 98 % of control; T/C (dose: 400.0 mg/kg/injection, schedule: Q07DX002 (ip), vehicle: Klucel (hydroxypropylcellulose) (HPC)): 98 % of control; T/C (dose: 450.0 mg/kg/injection, schedule: Q07DX002 (ip), vehicle: saline with Tween-80): 86 % of control; T/C (dose: 900.0 mg/kg/injection, schedule: Q07DX002 (ip), vehicle: saline with Tween-80): 57 % of control; T/C (dose: 1800.0 mg/kg/injection, schedule: Q07DX002 (ip), vehicle: saline with Tween-80): 119 % of control

Q: What does the source list for `Cc1cc2nc3c(=O)[nH]c(=O)nc-3n(CC(O)C(O)C(O)C(O)CO)c2cc1C` (stereo not given)?
A: T/C [12]: 100 % of control; T/C [13]: 124 % of control; T/C (dose: 100.0 mg/kg/injection, schedule: Q07DX002 (ip), vehicle: suspension in saline): 77 % of control; T/C [14]: 108 % of control; T/C [15]: 100 % of control; T/C [16]: 78 % of control; T/C (dose: 800.0 mg/kg/injection, schedule: Q07DX002 (ip), vehicle: suspension in saline): 58 % of control and 69 % of control; T/C (dose: 1600.0 mg/kg/injection, schedule: Q07DX002 (ip), vehicle: saline): 72 % of control

Source: PubChem BioAssay AID212 (DTP/NCI, 2004)
